pIC50: −log10 of the molar value. In brackets after ≈: the same amount, converted by molar mass. Like-named read-outs stand apart in the source and are kept apart here.
Legend:
S. aureus FabH = tested on: S. aureus FabH; parameters: method as in PMID 17456595; details: S. aureus FabH ref 2; cited from earlier work
M. smegmatis pVV16- FabH = assay: microbe, parasite or virus in culture; assay type: cell-based, Mycobacterium smegmatis; details: Mycolicibacterium smegmatis, PVV16FABH
Cg-FAS-I = assay: FAS-I activity in crude cell free extracts; assay type: biochemical, C. glutamicum; details: crude cell free extract, standard error in brackets
Description: FAS-I extracts from M. smegmatis and C. glutamicum were prepared as described previously. FAS-I experiments were conducted as described using the 40–80% ammonium sulfate fraction. Briefly, platensimycin was titred (0.1–150 µg/ml) into the standard reaction as follows: 100 mM potassium phosphate pH 7.0, 5 mM EDTA, 5 mM dithiothreitol, 300 µM acetyl-CoA, 100 µM NADPH, 100 µM NADH, 1 µM flavin mononucleotide, 500 µM α-cyclodextrin, 20 µM malonyl-CoA, 100,000 cpm of [2-^14C] malonyl-CoA, and 100 µl of the cytosolic enzyme preparation (1 mg of protein) in a total volume of 500 µl. Reactions were performed in triplicate at 37°C for 1 h and terminated by the addition of 500 µl of 20% potassium hydroxide in 50% methanol at 100°C for 30 min. Following acidification with 300 µl of 6 M HCl, the resultant [^14C]-labelled fatty acids were extracted three times with petroleum ether. The organic extracts were pooled, washed once with an equal volume of water, and dried in a scintillation vial prior to scintillation counting using 5 ml of EcoScintA (National Diagnostics, Hull, U.K.).

Mt-KasA = molecular target: T1, Mt-KasA (Mycobacterium tuberculosis, UniProt P9WQD9); assay: biochemical
T1 construct: made in house

Mt-FabH = molecular target: T2, Mt-FabH (Mycobacterium tuberculosis, UniProt P9WNG3); assay: biochemical
T2 construct: made in house

M. smegmatis = assay: Growth and viable count (CFU) of cultures over 72 h, revival after washing; assay type: cell-based, Mycobacterium smegmatis
M. bovis BCGΔ KasB = assay type: cell-based, Mycobacterium bovis BCG
M. smegmatis pVV16 = assay: MIC99 by Alamar Blue testing, vector control strain; assay type: cell-based, Mycobacterium smegmatis; details: Mycolicibacterium smegmatis
M. smegmatis pVV16- KasB = assay: microbe, parasite or virus in culture; assay type: cell-based, Mycobacterium smegmatis
M. smegmatis pVV16- KasA = assay: microbe, parasite or virus in culture; assay type: cell-based, Mycobacterium smegmatis
M. smegmatis mc^2155 [1] = assay type: cell-based, Mycobacterium smegmatis
Mt-KasB = molecular target: T3, Mt-KasB (Mycobacterium tuberculosis, UniProt P9WQD7); assay: biochemical
T3 construct: made in house

C. glutamicum = assay: Growth of cultures; assay type: cell-based; details: data not shown
human FAS-I = tested on: human FAS-I; parameters: method as in earlier work; details: cited from earlier work
Candida albicans = tested on: Candida albicans; parameters: method as in PMID 16710421; details: cited from earlier work
M. tuberculosis CDC1551 = assay: microbe, parasite or virus in culture; assay type: cell-based; details: Mycobacterium tuberculosis; M. tuberculosis CDC1551, solid medium
M. bovis BCG pVV16- KasB = assay: microbe, parasite or virus in culture; assay type: cell-based; details: Mycobacterium tuberculosis variant bovis BCG
HeLa = details: mammalian cell toxicity ref 3; cited from earlier work
M. tuberculosis H37Rv = assay: microbe, parasite or virus in culture; assay type: cell-based; details: Mycobacterium tuberculosis, solid medium
[2] = tested on: M. smegmatis pVV16- KasAB; assay: microbe, parasite or virus in culture; assay type: cell-based, Mycobacterium smegmatis; details: Mycolicibacterium smegmatis, PVV16KASAB
M. smegmatis mc^2155 [3] = assay: MIC99 by Alamar Blue testing, liquid medium; assay type: cell-based, Mycobacterium smegmatis; details: Mycolicibacterium smegmatis
M. bovis BCG pVV16 = assay: microbe, parasite or virus in culture; assay type: cell-based; details: Mycobacterium tuberculosis variant bovis BCG
M. bovis BCG = assay: microbe, parasite or virus in culture; assay type: cell-based
M. bovis BCG pVV16- KasA = assay: microbe, parasite or virus in culture; assay type: cell-based; details: Mycobacterium tuberculosis variant bovis BCG
rat FAS-I = tested on: rat FAS-I; parameters: method as in earlier work; details: cited from earlier work
KasB = KasB ref 25; cited from earlier work
KasA = details: cited from earlier work

T2 sequence (P9WNG3 whole entry): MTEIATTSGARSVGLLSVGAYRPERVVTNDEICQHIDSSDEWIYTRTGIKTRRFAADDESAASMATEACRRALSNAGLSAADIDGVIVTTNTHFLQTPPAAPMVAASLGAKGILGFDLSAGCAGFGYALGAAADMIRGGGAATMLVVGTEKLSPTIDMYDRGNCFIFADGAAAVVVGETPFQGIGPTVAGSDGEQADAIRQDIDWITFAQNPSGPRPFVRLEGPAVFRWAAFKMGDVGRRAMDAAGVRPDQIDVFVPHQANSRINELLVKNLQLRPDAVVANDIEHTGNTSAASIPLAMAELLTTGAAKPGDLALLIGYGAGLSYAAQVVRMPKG
T1 sequence (P9WQD9 whole entry): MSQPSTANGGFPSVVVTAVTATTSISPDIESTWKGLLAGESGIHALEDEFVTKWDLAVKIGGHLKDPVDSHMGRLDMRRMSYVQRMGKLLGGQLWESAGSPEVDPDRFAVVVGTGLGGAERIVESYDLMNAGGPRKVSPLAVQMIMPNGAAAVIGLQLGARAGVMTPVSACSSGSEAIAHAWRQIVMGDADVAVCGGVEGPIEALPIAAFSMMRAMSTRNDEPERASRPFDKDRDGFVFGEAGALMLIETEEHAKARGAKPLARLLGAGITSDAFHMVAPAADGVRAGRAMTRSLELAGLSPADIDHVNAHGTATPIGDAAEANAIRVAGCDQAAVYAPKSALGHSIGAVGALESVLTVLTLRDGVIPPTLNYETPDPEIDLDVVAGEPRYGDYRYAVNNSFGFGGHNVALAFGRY
T3 sequence (P9WQD7 whole entry): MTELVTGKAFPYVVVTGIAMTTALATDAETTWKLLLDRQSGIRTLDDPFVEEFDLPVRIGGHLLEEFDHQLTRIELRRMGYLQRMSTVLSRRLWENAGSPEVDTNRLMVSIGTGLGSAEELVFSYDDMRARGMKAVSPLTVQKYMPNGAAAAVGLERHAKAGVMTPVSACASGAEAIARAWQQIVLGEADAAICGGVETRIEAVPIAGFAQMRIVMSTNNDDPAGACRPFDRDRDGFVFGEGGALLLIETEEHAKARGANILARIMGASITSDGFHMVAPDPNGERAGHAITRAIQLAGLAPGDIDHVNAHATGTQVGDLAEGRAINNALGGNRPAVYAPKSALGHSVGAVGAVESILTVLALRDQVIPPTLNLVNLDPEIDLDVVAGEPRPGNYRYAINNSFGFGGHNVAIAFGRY

C=C1C[C@@]23C=CC(=O)[C@@](C)(CCC(=O)Nc4c(O)ccc(C(=O)O)c4O)[C@@H]2C[C@@H]1CC3 [platencin]
pIC50 (S. aureus FabH): 5.04

CC12C[C@@]34C=CC(=O)[C@@](C)(CCC(=O)Nc5c(O)ccc(C(=O)O)c5O)C3[C@H](CC1C4)O2 (stereo partly drawn) [platensimycin]
MIC99 (M. smegmatis pVV16- FabH): 16 µg/mL (≈ 36.2 µM) | IC50 (Cg-FAS-I): 6.5 (0.2) µg/ml | pIC50 (Mt-KasA): 5.34 | pIC50 (Mt-KasA; standard error in brackets): 5.34 | pIC50 (Mt-FabH): < 3.47 | decrease in CFU (M. smegmatis; 14 µg/ml platensimycin, 72 hours, LB broth): 2 log | nature of the antibiotic effect (revival after washing and re-inoculation) (M. smegmatis; cells exposed for 72 hours): bacteristatic | MIC99 (M. bovis BCGΔ KasB): 61 µg/mL (≈ 138 µM) | MIC99 (M. smegmatis pVV16): 14 µg/mL (≈ 31.7 µM) | increase in the MIC on Mt-KasB overexpression (M. smegmatis pVV16- KasB; MIC to 124 µg/ml): 9 fold | MIC99 (M. smegmatis pVV16- KasB; Mycolicibacterium smegmatis, PVV16KASB, M. smegmatis pVV16- KasB): 124 µg/mL (≈ 281 µM) | increase in resistance (MIC) on Mt-KasA overexpression (M. smegmatis pVV16- KasA; MIC from 14 to 30 µg/ml): 2 fold | MIC99 (M. smegmatis pVV16- KasA; Mycolicibacterium smegmatis, PVV16KASA, M. smegmatis pVV16- KasA): 30 µg/mL (≈ 68 µM) | Biosynthesis of fatty acids and α- and epoxy-mycolic acids (M. smegmatis mc^2155 [1]; 20–40 µg/ml, [14C]acetate labelling): significantly inhibited | α′-MAMEs level (M. smegmatis mc^2155 [1]; lower concentrations, 10–20 µg/ml): accumulation | synthesis of mycolate containing lipids GMM and TDM (M. smegmatis mc^2155 [1]; platensimycin-treated cultures, 20-40 µg/ml): reduced | pIC50 (Mt-KasB): 5.02 | pIC50 (Mt-KasB; standard error in brackets): 5.02 | growth of cultures of C. glutamicum (C. glutamicum): failed to inhibit growth | human FAS-I inhibition in vitro (human FAS-I): inhibited | antifungal activity against Candida albicans (Candida albicans): > 64 µg/mL | MIC99 (M. tuberculosis CDC1551): 12 µg/mL (≈ 27.2 µM) | MIC99 (M. bovis BCG pVV16- KasB): > 128 µg/mL | IC50 of HeLa MTT (HeLa): > 1000 µg/mL | MIC99 (M. tuberculosis H37Rv): 12 µg/mL (≈ 27.2 µM) | pIC50 (S. aureus FabH): 4.17 | MIC99 [2]: 126 µg/mL (≈ 285 µM) | MIC99 (M. smegmatis mc^2155 [3]): 14 µg/mL (≈ 31.7 µM) | MIC99 (M. bovis BCG pVV16): > 128 µg/mL | MIC99 (M. bovis BCG): >128 µg/mL | MIC99 (M. bovis BCG; Mycobacterium tuberculosis variant bovis BCG, read-out: MIC99): > 128 µg/mL | MIC99 (M. bovis BCG pVV16- KasA): > 128 µg/mL | rat FAS-I inhibition in vitro (rat FAS-I): inhibited

C=C/C(C)=C/[C@@]1(C)SC(=O)C(C)=C1O [TLM, thiolactomycin]
pIC50 (KasB): 4.05 | pIC50 (KasA): 4.70

Source: publication PMC2707616, “Platensimycin Activity against Mycobacterial β-Ketoacyl-ACP Synthases” (PLoS ONE, 2009)
